Melting point data for 2 compounds are collected here from patent publication US6521649B1 (priority 1995, dated 2003).

Structures can show the parent of a compound that is named as a salt.

The compound `CCc1nnsc1C(=O)O` [compound 178, t-butylammonium 4-ethyl-1,2,3-thiadiazole-5-carboxylate] came in with a melting point of 105 to 107 °C. For `CCc1nnsc1C(=O)O` (as salt: sodium) [compound 176, sodium 4-ethyl-1,2,3-thiadiazole-5-carboxylate] the value was 250 °C (dec.).
